Data from US10100331B2, “Reagent for gene-drug therapeutics” (Agency for Science, Technology and Research, priority 2012, dated 2018).
Like-named read-outs stand apart in the source and are kept apart here. Values belong to the compound of their own block, whether it stands above or below them.

Experiments:
Neuro2A cells = assay type: cell-based; details: for cell death at the concentrations used: Dynasore 30 μg/ml, Filipin III 5 μg/ml, Rottlerin […]; for uptake of polyplex: inhibitor 45 min prior transfection, LPEI/pDNA N/P=20, 4 h
Method: A. Native and differentiated (10 μM RA) Neuro2a was treated with 2.5 μg/ml rottlerin, 5 μg/ml Filipin III or 30 μg/ml Dynasore for 45 min prior transfection. DMSO/0.5% FBS was used as control for treatment. After transfection with polyplex (N/P=20), cells were incubated at 4° C. or 37° C. for 4 h. Extracellular pDNA was removed by pAA/DNAse and cells were trypsinized. Then, samples were treated with pAA/urea lysis buffer and the absolute copy number of pDNA was quantified by qPCR. In similar experiments, native Neuro2A cells were incubated at 37° C. for 24 h post transfection. B. Representative fluorescent images (bottom rows), acquired 48 h post transfection. C. Percentage of cells expressing EGFP was counted. Significant differences in transfection efficiencies were calculated using the two tailed student's t-test. The data shown were the mean±s.e.m., n=4. *, p<0.05; **, p<0.005.
For studies using inhibitors, cells were incubated with Dynasore (30 μg/ml), Filipin III (5 μg/ml) or Rottlerin (2.5 μg/ml) in DMEM (0.5% FBS) for 45 min prior transfection. Cells were further incubated in DMEM (0.5% FBS) containing corresponding inhibitors post transfection.
To quantify DNA internalized by the cells, the supernatant was removed and the cells were washed once with 1×PBS and incubated in DMEM containing pAA/DNAse for 2 h at 4° C. Next, the cells were trypsinized and treated with pAA/urea lysis buffer. Efficiency of DNA release by pAA/urea lysis buffer and pAA/DNase was evaluated (Supplementary FIGS. 15 & 18). […] Primers specific for EGFP, forward primer (5′-3′, […]; SEQ ID NO:1) and reverse primer (5′-3′, […]; SEQ ID NO:2) were used. PCR quantification of the pDNA was performed as previously described (Yoong, L.F., G. Wan, and H.P. Too. Mol Cell Neurosci, 2009. 41(4): p. 464-73). The absolute amount of pDNA was determined using plasmid standards by interpolation.

U251MG cells [1] = test: Viable cell number after p53 transfection with transfection enhancers; assay type: cell-based; details: for cell death / cell number with p53 transfection: pEGFP-N1-p53, 10 μM Tubastatin A, 5 μM SAHA
MICA and NKG2D = MICA and NKG2D expression in PC3 cells (PCR); assay type: cell-based, human; details: 5 μM SAHA, up to 48 hours
Method: At the end of the incubation, the cells were collected and subjected to PCR analysis. […] The histogram here represented fold change to control after normalization with GAPDH.

acetylated α-tubulin = test: Tubulin acetylation immunostaining; assay type: cell-based; details: for tubulin acetylation: differentiated Neuro2A, 2 h, Tubastatin A 10 μM, TSA 50 nM, Paclitaxel 25 nM, SAHA 5 μM, Entinostat 10 μM, Tacedinaline 50 μM
Method: Then, cells were fixed with 4% formaldehyde and co-stained for acetylated α-tubulin and β-tubulin. Confocal images of the individual and merged channels are shown. Bar represents 20 μm. Further, a table is presented, showing the reagents and their respective targets, as well as the concentration at which the experiment was done.
FIG. 35 depicts micrographs showing the transient effect of Tubastatin A on tubulin acetylation. Neuro2a cells were treated with Tubastatin A (10 μM) for 12 hours. Then, chemicals were removed by replacement with complete media and cells were further incubated for 48 h. At various time points, cells were fixed with 4% formaldehyde and stained for acetylated α-tubulin (Green) and nucleus (Hoechst stain, Blue). Representative images were shown. Bar represents 20 μm.
Control and 10 μM differentiated Neuro2a Cells were fixed with 4% formaldehyde in 1×PBS for 20 min at room temperature and subsequently permeabilized in 0.5% Triton-X100 in 1×PBS. Then, the samples fixed cells were blocked with normal goat serum (1:10; Dako, Glostrup, Denmark) in 0.1% Triton X-100/1×PBS for 30 min at 37° C. The cells were then incubated with primary antibodies against acetylated α-Tubulin (Sigma Aldrich T7451, 1:200 dilution) or TuJ (R&D Systems MAB1195, 1:50 dilution) in 0.1% TritonX-100/1% BSA/1×PBS at 37° C. for 2 h and washed three times in 1×PBS. […] The cells were washed three times in 1×PBS and mounted. Image acquisition was performed using the Zeiss LSM710 with Axio Observer.Z1 confocal microscope system (Oberkochen, Germany). All images were taken with identical laser and optical settings.

HDAC6 = target: T1, HDAC6 (Homo sapiens, UniProt Q9UBN7); details: Targeted HDAC/Sirtuin: 6; cited from earlier work
T1 sequence (Q9UBN7 1-1215): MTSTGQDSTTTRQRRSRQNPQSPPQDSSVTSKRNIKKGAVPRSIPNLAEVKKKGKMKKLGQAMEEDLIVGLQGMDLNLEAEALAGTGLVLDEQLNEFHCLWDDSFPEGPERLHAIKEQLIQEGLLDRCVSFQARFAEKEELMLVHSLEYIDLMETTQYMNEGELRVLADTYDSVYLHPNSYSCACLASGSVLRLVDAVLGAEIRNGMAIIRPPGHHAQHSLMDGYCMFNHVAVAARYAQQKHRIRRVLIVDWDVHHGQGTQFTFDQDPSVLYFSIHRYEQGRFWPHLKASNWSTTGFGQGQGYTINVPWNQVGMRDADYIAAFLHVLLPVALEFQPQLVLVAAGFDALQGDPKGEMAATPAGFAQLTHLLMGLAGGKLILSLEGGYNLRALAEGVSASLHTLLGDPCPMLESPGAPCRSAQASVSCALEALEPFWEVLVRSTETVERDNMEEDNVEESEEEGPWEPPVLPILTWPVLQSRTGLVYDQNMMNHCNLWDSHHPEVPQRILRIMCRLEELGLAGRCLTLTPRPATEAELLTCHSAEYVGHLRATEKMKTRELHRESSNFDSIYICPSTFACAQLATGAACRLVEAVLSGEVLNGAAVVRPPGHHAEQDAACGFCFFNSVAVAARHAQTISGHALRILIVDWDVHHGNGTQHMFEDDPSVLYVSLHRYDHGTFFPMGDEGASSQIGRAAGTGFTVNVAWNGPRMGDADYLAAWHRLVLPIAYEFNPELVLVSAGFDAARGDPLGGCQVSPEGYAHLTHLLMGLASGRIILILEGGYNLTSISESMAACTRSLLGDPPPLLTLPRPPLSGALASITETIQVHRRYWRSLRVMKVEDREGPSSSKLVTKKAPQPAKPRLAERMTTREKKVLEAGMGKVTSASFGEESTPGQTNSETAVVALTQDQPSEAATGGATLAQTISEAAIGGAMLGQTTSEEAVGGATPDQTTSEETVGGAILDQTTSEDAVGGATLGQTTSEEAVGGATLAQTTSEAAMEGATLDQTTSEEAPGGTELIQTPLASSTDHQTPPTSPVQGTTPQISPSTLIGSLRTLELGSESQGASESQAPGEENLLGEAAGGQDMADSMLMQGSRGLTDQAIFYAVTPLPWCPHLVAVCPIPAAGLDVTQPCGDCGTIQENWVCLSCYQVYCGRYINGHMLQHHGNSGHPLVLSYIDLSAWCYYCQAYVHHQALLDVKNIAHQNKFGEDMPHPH

KLF4 and c-Myc = KLF4 and c-Myc expression in HaF (PCR); assay type: cell-based, human; details: 1 mM VPA, up to 72 h
Method: Fibroblast cells were treated with 1 mM VPA for up to 3 days. At the end of incubation, the cells were collected and subjected to PCR analysis. Cells with no exposure to VPA (3 days) serve as control. Graphs present fold change to control after normalization with GAPDH.

HDAC1 = HDAC1 (Homo sapiens, UniProt Q13547); details: Targeted HDAC/Sirtuin: 1; cited from earlier work
HDAC3 = HDAC3 (Homo sapiens, UniProt O15379); details: Targeted HDAC/Sirtuin: 3; cited from earlier work
[2] = tested on: differentiated Neuro2A cells; test: Transfection efficiency (EGFP positive cells) of differentiated Neuro2A; assay type: cell-based; details: LPEI/pDNA N/P=20; chloroquine 25 or 100 μM, PLUS 10 or 20 μL, INF7 10 or 20 μg; 48 h
PC3 cells = test: GFP transfection of PC3 cells (FACS); assay type: cell-based, human; details: PEIMAX/PMAXGFP N/P=20
Method: Next, cells were harvested and GFP expression was analysed by FACS analysis. […] Representative images of the FACS analysis and transfected cells of each condition are presented. Error bar represents the standard error mean (S.E.M.) of n=3.

human fetal MSC cells [3] = test: GFP transfection of human fetal MSC; assay type: cell-based; details: PEIMAX/PMAXGFP N/P=10; 100 nM Trichostatin A
Method: Next, cells were harvested and GFP expressions were analysed by FACS analysis. Graph represents % of GFP+ cells. Error bar represents the standard error mean (S.E.M.) of n=3. Statistical significance of transfection efficiencies between cells exposed to polyplexes only and other conditions were obtained using two tailed student's t-test; *, p<0.01. Representative images of the transfected cells of each condition are presented.
Human fetal MSC cells were transfected with PEIMAX/PMAXGFP complex at N/P=10. […] Three days after transfection, media was replaced with fresh culture media. Bright field and fluorescent images were taken at Day 2, 7, 14 and 21 days post transfection. Representative imaged are presented.

U251MG cells [4] = test: GFP transfection of U251MG cells (FACS); assay type: cell-based; details: PEIMAX/PMAXGFP N/P=10; 10 μM Tubastatin A, 5 μM SAHA
Method: Furthermore, representative images of the FACS analysis and transfected cells for each conditions are presented. Error bar represents the standard error mean (S.E.M.) of n=3. […] Next, cells were harvested and GFP expressions were analysed by FACS analysis.

human fetal MSC cells [5] = test: BMP2 expression in human MSC (qPCR); assay type: cell-based; details: PEIMAX/PMAXGFP-BMP2 N/P=10; 3 day post transfection; 5 μM Tubastatin A, 150 nM TSA
[6] = differentiated (10 μM RA) Neuro2A

Sequence of HDAC1 (Q13547 whole entry, species assumed): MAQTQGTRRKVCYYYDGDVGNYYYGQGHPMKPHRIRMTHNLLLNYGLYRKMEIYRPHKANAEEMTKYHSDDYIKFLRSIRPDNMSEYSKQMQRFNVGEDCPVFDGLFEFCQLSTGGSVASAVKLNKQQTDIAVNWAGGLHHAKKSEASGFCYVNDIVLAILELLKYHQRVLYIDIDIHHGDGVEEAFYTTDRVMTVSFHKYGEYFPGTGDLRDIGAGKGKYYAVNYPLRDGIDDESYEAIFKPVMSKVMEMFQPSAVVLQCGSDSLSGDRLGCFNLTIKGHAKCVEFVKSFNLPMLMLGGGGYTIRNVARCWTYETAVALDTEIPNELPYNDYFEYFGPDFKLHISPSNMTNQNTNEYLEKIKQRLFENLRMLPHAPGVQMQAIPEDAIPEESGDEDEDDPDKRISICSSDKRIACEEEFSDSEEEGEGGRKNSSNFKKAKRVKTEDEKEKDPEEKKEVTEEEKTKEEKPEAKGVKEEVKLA
Sequence of HDAC3 (O15379 whole entry): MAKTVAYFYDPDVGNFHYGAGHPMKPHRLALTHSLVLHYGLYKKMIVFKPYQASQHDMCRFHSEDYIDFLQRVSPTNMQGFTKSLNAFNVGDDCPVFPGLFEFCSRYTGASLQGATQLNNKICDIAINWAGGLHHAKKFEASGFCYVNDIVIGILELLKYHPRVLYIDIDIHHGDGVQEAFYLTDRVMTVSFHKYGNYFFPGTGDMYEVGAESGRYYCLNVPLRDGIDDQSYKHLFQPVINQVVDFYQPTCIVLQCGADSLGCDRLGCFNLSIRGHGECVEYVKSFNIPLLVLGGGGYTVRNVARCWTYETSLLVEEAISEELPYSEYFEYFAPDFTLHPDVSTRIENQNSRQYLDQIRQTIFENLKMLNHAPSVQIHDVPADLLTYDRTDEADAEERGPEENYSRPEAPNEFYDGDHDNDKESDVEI
Sequence of HDAC3 (Q9Y618 395-489 partner limits assumed): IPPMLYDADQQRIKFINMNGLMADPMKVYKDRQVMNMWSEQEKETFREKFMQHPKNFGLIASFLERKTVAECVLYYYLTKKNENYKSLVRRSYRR

Compound: CCCCC[C@@H](O)[C@H]1C(=O)O[C@H](C)[C@@H](O)/C=C/C=C/C=C/C=C/C=C(\C)[C@@H](O)C[C@H](O)C[C@H](O)C[C@H](O)C[C@H](O)C[C@H](O)C[C@@H]1O [Filipin III]
cell death at the concentrations used (Neuro2A cells): no evidence of cell death
uptake of polyplex (Neuro2A cells; [6]): did not affect polyplex uptake
uptake of polyplex (Neuro2A cells; native Neuro2A): did not affect polyplex uptake

expression of MICA and NKG2D (MICA and NKG2D): induced up-regulation of MICA and NKG2D
Compound: O=C(CCCCCCC(=O)Nc1ccccc1)NO [SAHA, vorinostat]
cell number on increasing duration of incubation with SAHA (U251MG cells [1]; p53, DOPE/CHEMS, 5 μM SAHA for 48, 72 and 96 h): did not further reduce the cell number
cell death / cell number with p53 transfection (U251MG cells [1]): resulted in more cell death
tubulin acetylation (acetylated α-tubulin): markedly enhanced tubulin acetylation

Compound: CCCC(CCC)C(=O)O [Valproic Acid]
IC50 (HDAC6): 11.8 mM
expressions of cMyc and KLF4 (KLF4 and c-Myc): Gradual increment
IC50 (HDAC1): 442 µM

Compound: CC(=O)O[C@H]1C(=O)[C@@]2(C)[C@H]([C@H](OC(=O)c3ccccc3)[C@]3(O)C[C@H](OC(=O)[C@H](O)[C@@H](NC(=O)c4ccccc4)c4ccccc4)C(C)=C1C3(C)C)[C@]1(OC(C)=O)CO[C@@H]1C[C@@H]2O [paclitaxel]
tubulin acetylation (acetylated α-tubulin): markedly enhanced tubulin acetylation

Compound: Nc1ccccc1NC(=O)c1ccc(CNC(=O)OCc2cccnc2)cc1 [Entinostat]
tubulin acetylation (acetylated α-tubulin): not

Compound: O=C(/C=C/c1cccc(S(=O)(=O)Nc2ccccc2)c1)NO [Belinostat]
IC50 (HDAC6): 0.00041 mM

Compound: MC-1293
IC50 (HDAC3): 288 µM

Compound: CCN(CC)CCCC(C)Nc1ccnc2cc(Cl)ccc12 (stereo not shown) [chloroquine]
enhancement of transfection, reagent added post-transfection [2]: did not show cumulative enhancement of transfection

Compound: O=C(N/N=C/c1ccc(O)c(O)c1)c1cc2ccccc2cc1O [Dynasore]
uptake of polyplex (Neuro2A cells; [6]): significantly inhibited the uptake of polyplex
uptake of polyplex (Neuro2A cells; native Neuro2A): significantly inhibited the uptake of polyplex

Compound: C/C=C1\NC(=O)[C@H]2CSSCC/C=C/[C@H](CC(=O)N[C@H](C(C)C)C(=O)N2)OC(=O)[C@H](C(C)C)NC1=O [Romidepsin]
IC50 (HDAC1): 0.08 µM

Compound: CC(/C=C/C(=O)NO)=C\[C@@H](C)C(=O)c1ccc(N(C)C)cc1 [Trichostatin A]
enhancement of transfection (PC3 cells): significant enhancement of transfection
enhancement of transfection (human fetal MSC cells [3]): significant enhancement of transfection
tubulin acetylation (acetylated α-tubulin): markedly enhanced tubulin acetylation

Compound: CC(=O)Nc1ccc(C(=O)Nc2ccccc2N)cc1 [Tacedinaline]
tubulin acetylation (acetylated α-tubulin): not

Compound: CN1CCc2c(c3ccccc3n2Cc2ccc(C(=O)NO)cc2)C1 [Tubastatin A]
transfection efficiency (U251MG cells [4]): significant enhancement in transfection efficiency
enhancement of transfection (PC3 cells): significant enhancement of transfection
cell death / cell number with p53 transfection (U251MG cells [1]): did not result in greater reduction of cell number
BMP2 expression, fold over the negative control (human fetal MSC cells [5]): ~20,000 fold
duration of effect on tubulin acetylation (acetylated α-tubulin; Neuro2a, Tubastatin A 10 μM for 12 hours then washout): < 24 h
tubulin acetylation (acetylated α-tubulin): markedly enhanced tubulin acetylation

Compound: CC(=O)c1c(O)c(C)c(O)c(Cc2c(O)c3c(c(C(=O)/C=C/c4ccccc4)c2O)OC(C)(C)C=C3)c1O [Rottlerin]
cell death at the concentrations used (Neuro2A cells): no evidence of cell death
uptake of polyplex (Neuro2A cells; [6]): not in differentiated cells
uptake of polyplex (Neuro2A cells; native Neuro2A): reduced the uptake of polyplex significantly
